Laboratory results: patent US11464770B2, “Anticancer pharmaceutical composition” (NATIONAL CANCER CENTER, priority 2016, dated 2022)
Like-named read-outs stand apart in the source and are kept apart here.

Assays:
[1] = test system: breast cancer cell lines (e.g. MDA-MB-231, SK-BR-3, MDA-MB-468, HCC1954); assay: Cell based assay, cell viability (CellTiter-Glo), breast cancer cell lines
In short: (§1)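 72-hour continuous compound exposure, 0 to 2 μM final, begun one day after seeding; endpoint is ATP-based luminescent viability.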

melanoma cell lines = assay: Cell based assay, cell viability (CellTiter-Glo), melanoma cell lines; settings: Homo sapiens; LOX-IMVI cell line
In short: as §1

[2] = Breast cancer cell line MDA-MB-231-L/DOX, 72 hours, CellTiter-Glo, read-out: IC50, MDA-MB-231-L/DOX
[3] = Homo sapiens, Breast cancer cell line BT-20, 72 hours, CellTiter-Glo, read-out: IC50, BT-20
[4] = Homo sapiens, Breast cancer cell line HCC1395, 72 hours, CellTiter-Glo, read-out: IC50, HCC1395
[5] = Homo sapiens, Breast cancer cell line HCC1954, 72 hours, CellTiter-Glo, read-out: IC50, HCC1954
[6] = Homo sapiens, Breast cancer cell line JIMT-1, 72 hours, CellTiter-Glo, read-out: IC50, JIMT-1
[7] = Homo sapiens, Breast cancer cell line MCF7, 72 hours, CellTiter-Glo, read-out: IC50, MCF7
[8] = Homo sapiens, Breast cancer cell line MDA-MB-231, 72 hours, CellTiter-Glo, read-out: IC50, MDA-MB-231
[9] = Homo sapiens, Breast cancer cell line MDA-MB-468, 72 hours, CellTiter-Glo, read-out: IC50, MDA-MB-468
[10] = Homo sapiens, Breast cancer cell line SK-BR-3, 72 hours, CellTiter-Glo, read-out: IC50, SK-BR-3
[11] = Homo sapiens, BT-20 cells, 72 hours treatment, CellTiter-Glo cell viability, read-out: IC50, Breast cancer cell line BT-20
[12] = Homo sapiens, HCC1395 cells, 72 hours treatment, CellTiter-Glo cell viability, read-out: IC50, Breast cancer cell line HCC1395
[13] = Homo sapiens, HCC1954 cells, 72 hours treatment, CellTiter-Glo cell viability, read-out: IC50, Breast cancer cell line HCC1954
[14] = Homo sapiens, JIMT-1 cells, 72 hours treatment, CellTiter-Glo cell viability, read-out: IC50, Breast cancer cell line JIMT-1
[15] = Homo sapiens, MCF7 cells, 72 hours treatment, CellTiter-Glo cell viability, read-out: IC50, Breast cancer cell line MCF7
[16] = Homo sapiens, MDA-MB-231 cells, 72 hours treatment, CellTiter-Glo cell viability, read-out: IC50, Breast cancer cell line MDA-MB-231
[17] = Homo sapiens, MDA-MB-468 cells, 72 hours treatment, CellTiter-Glo cell viability, read-out: IC50, Breast cancer cell line MDA-MB-468
[18] = Homo sapiens, SK-BR-3 cells, 72 hours treatment, CellTiter-Glo cell viability, read-out: IC50, Breast cancer cell line SK-BR-3
[19] = MDA-MB-231-L/DOX cells, 72 hours treatment, CellTiter-Glo cell viability, read-out: IC50, Breast cancer cell line MDA-MB-231-L/DOX

Compound	IC50 [1, 2] [µM]	IC50 [1, 3] [µM]	IC50 [1, 4] [µM]	IC50 [1, 5] [µM]	IC50 [1, 6] [µM]	IC50 [1, 7] [µM]	IC50 [1, 8] [µM]	IC50 [1, 9] [µM]	IC50 [1, 10] [µM]	IC50 (melanoma cell lines) [µM]	IC50 [1, 11] [µM]	IC50 [1, 12] [µM]	IC50 [1, 13] [µM]	IC50 [1, 14] [µM]	IC50 [1, 15] [µM]	IC50 [1, 16] [µM]	IC50 [1, 17] [µM]	IC50 [1, 18] [µM]	IC50 [1, 19] [µM]
CC(=O)c1c(S/C=C\C(=O)O)[nH]c2c(Br)ccc(Cl)c2c1=O [Compound 67, (Z)-3-((3-acetyl-8-bromo-5-chloro-4-oxo-1,4-dihydroquinolin-2-yl)thio)acrylic acid]	> 2	> 2	> 10	> 2	> 10	> 2	> 2	> 2	> 2	> 2	–	–	–	–	–	–	–	–	–
CC(=O)c1c([S+]([O-])Cc2ccc(C(F)(F)F)o2)[nH]c2c(F)ccc(F)c2c1=O (stereo not drawn) [Compound 81, 3-acetyl-5,8-difluoro-2-(((5-(trifluoromethyl)furan-2-yl)methyl)sulfinyl)quinolin-4(1H)-one]	> 2	> 2	> 10	> 2	> 10	> 2	> 2	> 2	> 2	> 2	–	–	–	–	–	–	–	–	–
CC(=O)c1c([S+]([O-])Cc2cc(C)on2)[nH]c2c(F)ccc(F)c2c1=O (stereo not drawn) [Compound 82, 3-acetyl-5,8-difluoro-2-(((5-methylisoxazol-3-yl)methyl)sulfinyl)quinolin-4(1H)-one]	–	–	–	–	–	–	–	–	–	> 2	> 2	> 10	> 2	> 10	> 2	> 2	> 2	1.77	> 2
CC(C)C(=O)c1c([S+]([O-])Cc2ccc(SC(F)(F)F)cc2)[nH]c2c(F)ccc(F)c2c1=O (stereo not drawn) [Compound 85, 5,8-difluoro-3-isobutyryl-2-((4-((trifluoromethyl)thio)benzyl)sulfinyl)quinolin-4(1H)-one]	–	–	–	–	–	–	–	–	–	> 2	> 2	> 10	> 2	> 10	> 2	> 2	> 2	> 2	> 2
Cc1cc(C[S+]([O-])c2[nH]c3c(Cl)ccc(Cl)c3c(=O)c2C(=O)c2ccccc2)no1 (stereo not drawn) [Compound 88, 3-benzoyl-5,8-dichloro-2-(((5-methylisoxazol-3-yl)methyl)sulfinyl)quinolin-4(1H)-one]	–	–	–	–	–	–	–	–	–	> 2	> 2	> 10	> 2	> 10	> 2	> 2	> 2	> 2	> 2
CC(=O)c1c([S+]([O-])CN2C(=O)c3ccccc3C2=O)[nH]c2c(Cl)ccc(Cl)c2c1=O (stereo not drawn) [Compound 90, 2-(((3-acetyl-5,8-dichloro-4-oxo-1,4-dihydroquinolin-2-yl)sulfinyl)methyl)isoindoline-1,3-dione]	–	–	–	–	–	–	–	–	–	> 2	> 2	> 10	> 2	> 10	> 2	> 2	> 2	> 2	> 2
COc1cccc2[nH]c(SCc3ccc(S(F)(F)(F)(F)F)cc3)c(C(C)=O)c(=O)c12 [Compound 92, 3-acetyl-5-methoxy-2-((4-(pentafluoro--sulfanyl)benzyl)thio)quinolin-4(1H)-one]	–	–	–	–	–	–	–	–	–	> 2	> 2	> 10	> 2	> 10	> 2	> 2	> 2	> 2	> 2

Other lines, results leading:

IC50 [1, 2] [µM]	IC50 [1, 3] [µM]	IC50 [1, 4] [µM]	IC50 [1, 5] [µM]	IC50 [1, 6] [µM]	IC50 [1, 7] [µM]	IC50 [1, 8] [µM]	IC50 [1, 9] [µM]	IC50 [1, 10] [µM]	IC50 (melanoma cell lines) [µM]	IC50 [1, 11] [µM]	IC50 [1, 12] [µM]	IC50 [1, 13] [µM]	IC50 [1, 14] [µM]	IC50 [1, 15] [µM]	IC50 [1, 16] [µM]	IC50 [1, 17] [µM]	IC50 [1, 18] [µM]	IC50 [1, 19] [µM]	Compound
> 2	> 2	> 10	> 2	> 10	> 2	1.22	> 2	1.23	0.96	–	–	–	–	–	–	–	–	–	CC(=O)c1c([S+]([O-])Cc2ccc(S(F)(F)(F)(F)F)cc2)[nH]c2c(Br)ccc(Cl)c2c1=O (stereo not drawn) [Compound 68, 3-acetyl-8-bromo-5-chloro-2-((4-(pentafluoro-16-sulfanyl)benzyl)sulfinyl)quinolin-4(1H)-one]
> 2	> 2	> 10	> 2	> 10	> 2	1.37	> 2	1.45	1.12	–	–	–	–	–	–	–	–	–	CC(=O)c1c([S+]([O-])Cc2ccc(S(F)(F)(F)(F)F)cc2F)[nH]c2c(Br)ccc(Cl)c2c1=O (stereo not drawn) [Compound 69, 3-acetyl-8-bromo-5-chloro-2-((2-fluoro-4-(pentafluoro-16-sulfanyl)benzyl)sulfinyl)quinolin-4(1H)-one]
> 2	> 2	> 10	> 2	> 10	> 2	> 2	> 2	1.44	1.16	–	–	–	–	–	–	–	–	–	CC(=O)c1c([S+]([O-])Cc2cccc(S(F)(F)(F)(F)F)c2)[nH]c2c(Br)ccc(Cl)c2c1=O (stereo not drawn) [Compound 77, 3-acetyl-8-bromo-5-chloro-2-((3-(pentafluoro--sulfanyl)benzyl)sulfinyl)quinolin-4(1H)-one]
> 2	> 2	> 10	> 2	> 10	> 2	> 2	> 2	> 2	> 2	–	–	–	–	–	–	–	–	–	CC(=O)c1c([S+]([O-])Cc2ccc(SC(F)(F)F)cc2)[nH]c2c(Cl)ccc(Cl)c2c1=O (stereo not drawn) [Compound 79, 3-acetyl-5,8-dichloro-2-((4-((trifluoromethyl)thio)benzyl)sulfinyl)quinolin-4(1H)-one]
> 2	> 2	> 10	> 2	> 10	> 2	> 2	> 2	> 2	> 2	–	–	–	–	–	–	–	–	–	CC(=O)c1c([S+]([O-])Cc2ccc(S(F)(F)(F)(F)F)cc2)[nH]c2c(F)ccc(F)c2c1=O (stereo not drawn) [Compound 80, 3-acetyl-5,8-difluoro-2-((4-(pentafluoro--sulfanyl)benzyl)sulfinyl)quinolin-4(1H)-one]
–	–	–	–	–	–	–	–	–	> 2	> 2	> 10	> 2	> 10	> 2	> 2	> 2	> 2	> 2	O=C(c1ccccc1)c1c([S+]([O-])Cc2ccc(S(F)(F)(F)(F)F)cc2)[nH]c2c(F)ccc(F)c2c1=O (stereo not drawn) [Compound 87, 3-benzoyl-5,8-difluoro-2-((4-(pentafluoro--sulfanyl)benzyl)sulfinyl)quinolin-4(1H)-one]
–	–	–	–	–	–	–	–	–	> 2	> 2	> 10	1.82	> 10	> 2	> 2	1.32	1.32	> 2	COC(=O)c1ccc(C[S+]([O-])c2[nH]c3c(Cl)ccc(Cl)c3c(=O)c2C(C)=O)cc1 (stereo not drawn) [Compound 91, methyl 4-(((3-acetyl-5,8-dichloro-4-oxo-1,4-dihydroquinolin-2-yl)sulfinyl)methyl)benzoate]
–	–	–	–	–	–	–	–	–	> 2	> 2	> 10	> 2	> 10	> 2	> 2	> 2	> 2	> 2	COc1cccc2[nH]c([S+]([O-])Cc3ccc(S(F)(F)(F)(F)F)cc3)c(C(C)=O)c(=O)c12 (stereo not drawn) [Compound 93, 3-acetyl-5-methoxy-2-((4-(pentafluoro--sulfanyl)benzyl)sulfinyl)quinolin-4(1H)-one]
